# According to ChEMBL document CHEMBL5620390, “A novel multifunctional mitochondrion-targeting NIR fluorophore probe inhibits tumour proliferation and metastasis through the PPARγ/ROS/β-catenin pathway” (Eur J Med Chem, 2023):
# Calls of active or inactive are those of the source. No cut-off for these calls is given here.
# Experiments:
# [1] = Drug uptake in human MDA-MB-231 cells assessed as fluorescence intensity at 2.5 uM incubated for 1 hr by confocal laser scanning microscopic analysis; type: ADME, cell-based; conditions: mda-mb-231, 1 h
# [2] = Drug uptake in human A549 cells assessed as fluorescence intensity at 2.5 uM incubated for 1 hr by confocal laser scanning microscopic analysis; type: ADME, cell-based; conditions: a549, 1 h
# [3] = Drug uptake in human HeLa cells assessed as fluorescence intensity at 2.5 uM incubated for 1 hr by confocal laser scanning microscopic analysis; type: ADME, cell-based
# A-375 [4] = test: Induction of ROS generation in human A-375 cells assessed as reduction in SOD2 expression level at 0.31 to 1.25 uM incubated for 24 hrs; type: functional, cell-based; conditions: dose 0.31-1.25 µM
# [5] = Cytotoxicity against human A-375 cells assessed as cell viability at 40 uM incubated for 24 hrs by MTT assay; type: toxicity, cell-based; conditions: read-out: Activity
# B16-F10 [6] = test: Inhibition of ROS generation in mouse B16-F10 cells preincubated with rosiglitazone for 2 hrs followed by wash out and compound addition for 1 hr by DCFH-DA staining based inverted fluorescence microscopic analysis; type: functional, cell-based
# A-375 [7] = test: Induction of ROS generation in human A-375 cells assessed as reduction in PPARgamma expression level at 1.25 uM preincubated with rosiglitazone for 24 hrs followed by compound addition for 24 hrs; type: functional, cell-based
# A-375 [8] = test: Induction of ROS generation in human A-375 cells assessed as reduction in GPX1 expression level at 1.25 uM preincubated with rosiglitazone for 24 hrs followed by compound addition for 24 hrs; type: functional, cell-based
# B16-F10 [9] = test: Antiproliferative activity against mouse B16-F10 cells assessed as inhibition of cell growth at 0.31 uM after 72 hrs by MTT assay; type: functional; parameters: scale not given: the % may be the effect or the level left
# A-375 [10] = test: Antiproliferative activity against human A-375 cells assessed as inhibition of cell growth after 24 to 72 hrs by MTT assay; type: functional, cell-based
# B16-F10 [11] = test: Inhibition of colony formation in mouse B16-F10 cells at less than 0.63 uM by crystal violet staining based assay; type: functional, cell-based
# A-375 [12] = test: Inhibition of Wnt/beta-catenin signaling in human A-375 cells assessed as reduction in beta-catenin expression at 1.25 uM incubated for 24 hrs; type: cell-based
# A-375 [13] = test: Inhibition of Wnt/beta-catenin signaling in human A-375 cells assessed as reduction in TCF4 expression at 1.25 uM preincubated with rosiglitazone for 24 hrs followed by compound addition and measured after 24 hrs in presence of H2O2; type: cell-based
# B16-F10 [14] = test: Induction of cell cycle arrest in mouse B16-F10 cells assessed as reduction in Cdk4 protein level at 0.31 to 1.25 uM after 24 hrs by Western blotting analysis; type: functional, cell-based; conditions: dose 0.31-1.25 µM
# B16-F10 [15] = test: Induction of cell cycle arrest in mouse B16-F10 cells assessed as reduction in cyclin E1 protein level at 0.31 to 1.25 uM after 24 hrs by Western blotting analysis; type: functional, cell-based; conditions: dose 0.31-1.25 µM
# B16-F10 [16] = test: Induction of cell cycle arrest in mouse B16-F10 cells assessed as P27 protein accumulation at 0.31 to 1.25 uM after 24 hrs by Western blotting analysis; type: functional, cell-based; conditions: dose 0.31-1.25 µM
# A-375 [17] = test: Antitumor activity against human GFP-stained A-375 cells inoculated in zebrafish assessed as reduction in tumor growth by measuring tumor fluorescence intensity; type: functional, cell-based
# B16-F10 [18] = test: Antitumor activity against mouse B16-F10 cells inoculated in C57BL/6J mouse assessed as reduction in tumor volume at 0.5 to 2 mg/kg, ip administered every other day and measured on day 22; type: functional, organism-based; conditions: dose 0.5-2 mg/kg, time 22.0 day
# [19] = Renal toxicity in C57BL/6J mouse inoculated with mouse B16-F10 cells assessed as change in CREA level at 2 mg/kg, ip administered every other day for 22 days; type: organism-based; conditions: in vivo, 528 h, time 22 day
# B16-F10 [20] = test: Antitumor activity against mouse B16-F10 cells inoculated in C57BL/6J mouse assessed as reduction in Ki-67 expression at 0.5 to 2 mg/kg, ip administered every other day and measured on day 22 by immunohistochemistry analysis; type: functional, organism-based; conditions: dose 0.5-2 mg/kg, time 22.0 day
# B16-F10 [21] = test: Antitumor activity against mouse B16-F10 cells inoculated in mouse assessed as reduction in lung melanoma nodules at 2 mg/kg, ip administered every other day and measured on day 18 by immunohistochemistry analysis; type: functional, organism-based; conditions: time 18.0 day
# [22] = Toxicity in mouse inoculated with mouse B16-F10 cells assessed as change in body weight at 2 mg/kg, ip administered every other day and measured on day 18; type: organism-based; conditions: in vivo, 432 h, time 18 day
# B16-F10 [23] = test: Antitumor activity against mouse B16-F10 cells inoculated in mouse assessed as reduction in tumor invasion at 2 mg/kg, ip administered every other day and measured on day 18 by H and E staining based assay; type: functional, organism-based; conditions: time 18.0 day
# B16-F10 [24] = test: Antitumor activity against mouse B16-F10 cells inoculated in mouse assessed as reduction in MMP9 expression at 2 mg/kg, ip administered every other day and measured on day 18 by immunohistochemistry analysis; type: functional, organism-based; conditions: time 18.0 day
smiles,measurement,setting,value
CC[N+]1=C(/C=C/C2=C(Cl)C(=C/C=C3\N(CCCCCC(=O)O/C(=N/C4CCCCC4)NC4CCCCC4)c4ccccc4C3(C)C)/CCC2)C(C)(C)c2ccccc21.[Br-],Drug uptake,[1],Active
same,Drug uptake,[2],Active
same,Drug uptake,[3],Active
same,Activity,A-375 [4],Active
same,"viability at 24 h, 40 µM",[5],90%
same,Activity,B16-F10 [6],Dose-Dependent Effect
same,Activity,A-375 [7],inactive
same,Activity,A-375 [8],inactive
same,Activity,B16-F10 [9],70%
same,IC50,A-375 [10],180 nM
same,Activity,A-375 [10]; time 24-72 hrs,Dose-Dependent Effect
same,inhibition,B16-F10 [11],Active
same,inhibition,A-375 [12],Active
same,inhibition,A-375 [13],inactive
same,Activity,B16-F10 [14],Active
same,Activity,B16-F10 [15],Active
same,Activity,B16-F10 [16],Active
same,Activity,A-375 [17],Active
same,Activity,B16-F10 [18],Active
same,Activity,[19],Non-Toxic
same,Activity,B16-F10 [20],Active
same,Activity,B16-F10 [21],Active
same,Activity,[22],Non-Toxic
same,Activity,B16-F10 [23],Active
same,Activity,B16-F10 [24],Active
